From ChEMBL document CHEMBL1127456, “Structure-activity studies of antitumor taxanes: synthesis of novel C-13 side chain homologated taxol and taxotere analogs” (J Med Chem, 1994)

Legend:
[1] = molecular target: Tubulin alpha chain (Sus scrofa) (UniProt P02550); test: Tested for the reduction of the supernatant protein concentration by tubulin assembly assay; assay type: functional
[2] = Ratio between ED50 of compound and ED50 of taxol; assay type: functional

Sequence of Tubulin alpha chain (Sus scrofa) (P02550 whole entry, looked up): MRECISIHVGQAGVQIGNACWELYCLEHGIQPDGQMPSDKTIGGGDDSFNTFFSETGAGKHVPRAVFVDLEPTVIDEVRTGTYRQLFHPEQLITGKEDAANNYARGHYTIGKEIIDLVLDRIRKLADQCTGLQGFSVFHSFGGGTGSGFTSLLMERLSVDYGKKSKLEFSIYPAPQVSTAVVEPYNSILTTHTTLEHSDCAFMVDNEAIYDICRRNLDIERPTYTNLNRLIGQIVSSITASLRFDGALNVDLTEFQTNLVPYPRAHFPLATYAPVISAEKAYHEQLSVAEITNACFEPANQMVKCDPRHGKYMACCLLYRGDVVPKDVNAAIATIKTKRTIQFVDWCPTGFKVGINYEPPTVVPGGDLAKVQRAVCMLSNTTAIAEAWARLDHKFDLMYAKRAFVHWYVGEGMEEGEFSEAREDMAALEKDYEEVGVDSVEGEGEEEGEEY

SMILES | ED50 [1] | Ratio [2]
CC(=O)O[C@@]12CO[C@@H]1C[C@H](O)[C@@]1(C)C(=O)[C@H](O)C3=C(C)[C@@H](OC(=O)[C@H](O)C(NC(=O)c4ccccc4)c4ccccc4)C[C@@](O)([C@@H](OC(=O)c4ccccc4)C12)C3(C)C (stereo partly specified) | > 25 µM | > 27
CC(=O)O[C@H]1C(=O)[C@@]2(C)[C@H]([C@H](OC(=O)c3ccccc3)[C@]3(O)C[C@H](OC(=O)[C@H](O)[C@@H](NC(=O)c4ccccc4)c4ccccc4)C(C)=C1C3(C)C)[C@]1(OC(C)=O)CO[C@@H]1C[C@@H]2O | 0.93 µM | 1
CC(=O)O[C@@]12CO[C@@H]1C[C@H](O)[C@@]1(C)C(=O)[C@H](O)C3=C(C)[C@@H](OC(=O)[C@H](O)[C@@H](NC(=O)OC(C)(C)C)c4ccccc4)C[C@@](O)([C@@H](OC(=O)c4ccccc4)[C@H]21)C3(C)C | > 25 µM | > 27
